{
  "source": "paper PMC4099323",
  "about": "“Inhibition of Catalase by Tea Catechins in Free and Cellular State: A Biophysical Approach” (PLoS ONE, 2014)",
  "key": {"[1]": {"molecular_target": "human dihydrofolate reductase (DHFR)", "parameters": "method as in PMID 20054477", "conditions": "fluorescence quenching; cited from earlier work"}, "[2]": {"test_system": "phosphorylation of JNK, JUN, MEK1, MEK2", "conditions": "JB6 epidermal cell lines, 5–20 µM; cited from earlier work"}, "[3]": {"molecular_target": "Bcl-2 proteins", "conditions": "read-out: inhibition constant (K i); cited from earlier work"}, "[4]": {"molecular_target": "vimentin", "conditions": "read-out: dissociation constant (K d); cited from earlier work"}, "[5]": {"test_system": "cyclin dependent kinase 2 (CDK2)", "conditions": "MCF7 breast cancer cell lines, 30 µM; cited from earlier work"}, "[6]": {"test_system": "CDK4", "conditions": "MCF7 breast cancer cell lines, 30 µM; cited from earlier work"}, "[7]": {"molecular_target": "G3BP1", "conditions": "read-out: dissociation constant (K d); cited from earlier work"}, "[8]": {"test_system": "K562 cells", "assay": "MTT cell viability assay", "assay_type": "cell-based", "conditions": "Homo sapiens", "method": "Cell viability of K562 cells was quantified by MTT based colorimetric assay as described elsewhere. Briefly, cells were rinsed with PBS and 0.5 mg/ml MTT was added into each sample. The mixture was incubated at 37°C for an additional 3 h. At the end of incubation period, the medium containing MTT was removed and the pellet was dissolved in 200 µl DMSO. Absorbance was measured at a wavelength of 570 nm. Cell viability was expressed as a percentage of the control culture.\nThe concentration (IC50) at which the K562 cell survivability was reduced to 50% was calculated for EGCG and 3-AT by MTT based cell viability assay."}, "[9]": {"molecular_target": "T1, Catalase (from bovine liver) (Bos taurus, UniProt P00432)", "T1 construct": "Catalase (from bovine liver); purchased Sigma-Aldrich, St. Louis, MO, USA; host or cells: bovine liver", "T1 sequence (P00432 2-527 limits assumed)": "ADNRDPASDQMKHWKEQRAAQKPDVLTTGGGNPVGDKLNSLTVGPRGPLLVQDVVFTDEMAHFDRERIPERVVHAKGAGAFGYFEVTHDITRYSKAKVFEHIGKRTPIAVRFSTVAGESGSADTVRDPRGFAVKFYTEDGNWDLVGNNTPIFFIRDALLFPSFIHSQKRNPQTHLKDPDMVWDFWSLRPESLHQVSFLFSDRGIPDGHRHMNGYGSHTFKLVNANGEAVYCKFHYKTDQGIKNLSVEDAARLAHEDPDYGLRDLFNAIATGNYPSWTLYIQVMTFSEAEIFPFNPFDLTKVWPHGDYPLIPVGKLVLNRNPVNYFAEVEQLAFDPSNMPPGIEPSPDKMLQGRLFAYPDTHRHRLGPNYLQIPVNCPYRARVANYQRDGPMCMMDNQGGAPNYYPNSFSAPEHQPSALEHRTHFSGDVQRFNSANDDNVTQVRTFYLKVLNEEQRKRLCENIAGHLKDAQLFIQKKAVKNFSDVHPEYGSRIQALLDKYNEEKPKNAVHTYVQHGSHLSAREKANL", "assay": "Inhibition of pure catalase activity (cell free), H2O2 decay at 240 nm", "assay_type": "biochemical", "method": "Absorption spectrophotometer (Varian, CARY 100 Bio, USA) was used to determine pure catalase activity (cell free). Briefly, 900 µl of H2O2 (0.036%) was taken in quartz cell of 1 cm path length and its absorbance was recorded at 240 nm. To the solution, 100 µl of catalase (50 U/ml) was added and the decrease in absorbance was recorded at 10 s interval. This experiment was performed in presence 50 µM each of four catechins and 3-AT separately to evaluate the inhibitory effect of catechins on catalase activity, after 1 h incubation.\n(§1) On addition of catechins, a decrease in rate of H2O2 degradation i.e. a decrease in pure catalase activity was observed which is represented in Figure 6A. Catechins with galloyl moiety (ECG and EGCG) reduced catalase activity more than its non-gallated counterparts i.e. EGC and EC. However, Inhibition by EGCG is the closest to inhibition by known catalase inhibitor 3-AT."}, "[10]": {"molecular_target": "T2, cellular catalase in K562 cells (Homo sapiens, UniProt P04040)", "T2 construct": "endogenous in cells; host or cells: K562 cells", "T2 sequence (P04040 2-527 limits assumed)": "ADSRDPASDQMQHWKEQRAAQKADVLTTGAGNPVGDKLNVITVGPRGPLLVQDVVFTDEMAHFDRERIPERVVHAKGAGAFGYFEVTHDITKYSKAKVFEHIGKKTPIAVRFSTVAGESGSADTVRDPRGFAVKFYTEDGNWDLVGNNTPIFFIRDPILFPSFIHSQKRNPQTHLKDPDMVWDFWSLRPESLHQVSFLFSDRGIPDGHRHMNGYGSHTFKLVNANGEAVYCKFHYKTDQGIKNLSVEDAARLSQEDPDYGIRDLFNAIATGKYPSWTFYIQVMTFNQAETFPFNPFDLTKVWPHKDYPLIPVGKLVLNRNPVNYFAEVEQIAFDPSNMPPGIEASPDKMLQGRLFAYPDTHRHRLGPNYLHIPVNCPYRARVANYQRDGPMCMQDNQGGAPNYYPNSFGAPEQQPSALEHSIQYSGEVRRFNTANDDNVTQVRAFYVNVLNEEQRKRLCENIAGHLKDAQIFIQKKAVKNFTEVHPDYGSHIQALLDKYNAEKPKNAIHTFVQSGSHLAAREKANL", "assay": "Inhibition of cellular catalase activity in K562 cells", "assay_type": "cell-based", "conditions": "50 µM each, 2 hours at 37°C", "method": "Estimation of cellular catalase activity was carried out by suspending K562 cells (5×10^4 for each sample) in 1 ml of PBS along with four catechins and 3-AT (50 µM each) separately and incubated at 37°C for 2 hours. Later, each sample was centrifuged and washed twice with PBS. The final pellet was suspended in 200 µl lysis buffer and kept on ice for 30 min. The lysate was then used in the same protocol used for evaluation of pure catalase activity.\nas §1"}},
  "data": [
    {"smiles": "O=C(O[C@@H]1Cc2c(O)cc(O)cc2O[C@@H]1c1cc(O)c(O)c(O)c1)c1cc(O)c(O)c(O)c1", "note": "[EGCG, (−)-epigallocatechin gallate]", "values": [
      {"measurement": "Kd", "setting": "[1]", "result": 0.9, "unit": "µM"},
      {"measurement": "inhibition of phosphorylation of JNK, JUN, MEK1, MEK2", "setting": "[2]", "result": "inhibited"},
      {"measurement": "Ki", "setting": "[3]", "result": "0.33 to 0.49", "unit": "µM"},
      {"measurement": "Kd", "setting": "[4]", "result": 0.0033, "unit": "µM"},
      {"measurement": "inhibition of CDK2", "setting": "[5]", "result": "inhibited"},
      {"measurement": "inhibition of CDK4", "setting": "[6]", "result": "inhibited"},
      {"measurement": "Kd", "setting": "[7]", "result": 0.4, "unit": "µM"},
      {"measurement": "IC50", "setting": "[8]", "result": 54.5, "unit": "µM"},
      {"measurement": "IC50", "setting": "[8]; conversion of the µM value", "result": 27, "unit": "mg/L"},
      {"measurement": "y-intercept 1/V0 of inhibited catalase", "setting": "[9]; Lineweaver-Burk plot, uninhibited 0.0081", "result": 0.3635, "unit": "min/µM"},
      {"measurement": "type of inhibition (Lineweaver-Burk plot)", "setting": "[9]; catalase – H2O2 reaction", "result": "uncompetitive"},
      {"measurement": "order of inhibition of catalase activity", "setting": "[9]; pure catalase, 50 µM each, 1 h incubation", "result": "3-AT>EGCG>ECG>EC>EGC"},
      {"measurement": "inhibition of cellular catalase activity", "setting": "[10]", "result": "inhibited cellular catalase in K562 cancer cells"}
    ]}
  ]
}
